Experiments:
tomato = assay: Tomato leaf transpiration, greenhouse, porometer (Example 5); format: in vivo, Tomato (variety: Rutgers); settings: for Tomato leaf transpiration (in words): PBI-429 25-200 ppm, trinexapac-ethyl 250-2000 ppm, alone or combined, 3-14 days after treatment
Description: The effect of ABA analog (PBI-429) and trinexapac-ethyl combinations on transpiration and growth inhibition of dicotyledonous (tomato) was also examined in the greenhouse condition. Tomato (variety: Rutgers) seeds were sown in 18-cell flat filled with Promix PGX (available from Premier Horticulture Inc. Quakertown, Pa.) and grown for 3 weeks to allow for germination and initial growth. Plants were then transplanted into pots (18 cm in diameter and 18 cm in height), filled with Promix BX (available from Premier Horticulture Inc. Quakertown, Pa.), and grown for one week before the chemical treatment. Plants received daily irrigation and weekly fertilizer (1 g/L all purpose fertilizer 20-20-20, available from The Scotts Company, Marysville, Ohio). During the chemical treatment, a 24 mL (4 mL/plant) solution was foliar sprayed on the tomato canopy. Leaf transpiration rates were measured using a LI-1600 Steady State Porometer (LI-Cor, Lincoln, Nebr.) at 3, 5, 7, 10, and 14 days after treatment. The leaf transpiration rate was normalized to the percentage of control plant to minimize the experimental errors caused by environmental factors. Plant height was measured at 0, 3, 5, 7, 10 and 14 days after treatment. The growth rate was calculated based on the changes of plant height in certain intervals. The plants were harvested and the leaf number was counted at 14 days after treatment.

creeping bentgrass [1] = assay: Golf course green field study on creeping bentgrass with PBI-702: turfgrass height, soil moisture, turf quality (Example 3); format: in vivo, Penncross creeping bentgrass; settings: for Soil moisture / Turfgrass height / Turf quality: 25 ppm trinexapac-ethyl alone; for Turf quality: visual 0-9 scale, 9 best
Experimental: (§1) Field studies were conducted at the nursery green or the practice green at Countryside golf course (Mundelein, Ill.). Both greens were sand based and growing Penncross creeping bentgrass. Grass was managed with typical Illinois golf course management practices.
Chemical solutions were prepared with distilled water. Tween 20 (0.05% v/v) was used as the surfactant when necessary. Trinexapac-ethyl (commercial product Primo Maxx, 11.3% active ingredient) was purchased from Syngenta Crop Protection Inc. (Greensboro, N.C.). ABA analogs, 8′ acetylene-ABA, acid (PBI-524), 8′ acetylene-ABA, ester (PBI-429), 8′ cyclopropane ester (PBI-696), or Tetralone, first carbon tail acetylene, ester (PBI-702), were obtained from Plant Biotechnology Institute, National Research Council of Canada (Saskatoon, Saskatchewan, Canada).
Chemical solutions were foliar applied to the turfgrass canopy at the rate of 4-gallons/1000 square foot (or 0.163 L/m^−2) immediately after finishing the preparation of solutions. After treatment, turfgrasses were arranged in a randomized complete block experimental design. Turfgrass quality, turfgrass height or clip fresh weight was measured on assigned dates. Turfgrass quality was visually rated on a 0-9 scale based on the color, uniformity, and density of the grass with 0 as the worst and 9 as the best. Turfgrass height was measured as the distance between canopy surface and soil. Clippings were collected form each plot; all plots were cut to a uniform height.
All experiments were randomized complete block experimental design. Data were analyzed by analysis of variance. Duncan's new multiple range tests at α=0.05 were used for mean separations.
Trinexapac-ethyl (25 ppm) or PBI-702 (50 ppm) were one time foliar applied alone or in combination to creeping bentgrass in the golf course green to investigate their effect on turfgrass quality, growth inhibition and soil moisture.

creeping bentgrass [2] = assay: Golf course green field study on creeping bentgrass with PBI-696: growth rate, turfgrass quality (Example 4); format: in vivo, Penncross creeping bentgrass; settings: 4 days after treatment, trinexapac-ethyl (25 ppm) alone
Experimental: as §1
Chemical solutions were prepared with distilled water. Tween 20 (0.05% v/v) was used as the surfactant when necessary. Trinexapac-ethyl (commercial product Primo Maxx, 11.3% active ingredient) was purchased from Syngenta Crop Protection Inc. (Greensboro, N.C.). […]
Chemical solutions were foliar applied to the turfgrass canopy at the rate of 4-gallons/1000 square foot (or 0.163 L/m^−2) immediately after finishing the preparation of solutions. […] Turfgrass quality, turfgrass height or clip fresh weight was measured on assigned dates. […] Turfgrass height was measured as the distance between canopy surface and soil. […]
All experiments were randomized complete block experimental design. Data were analyzed by analysis of variance. […]
Trinexapac-ethyl (25 ppm) and PBI-696 (5 or 50 ppm) were one time foliar applied in combination to creeping bentgrass in the golf course green. Turfgrass quality and growth rate were measured 4 days after treatment.

C#CC1(C)CC(=O)C=C(C)C1(O)/C=C/C(C)=C\C(=O)OC (stereo not drawn) [PBI-429, 8′ acetylene-ABA, ester]
Transpiration (tomato; 25 ppm PBI-429, 3 days after treatment): 53 % of control
Transpiration (tomato; 25 ppm PBI-429, 5 days after treatment): 61 % of control
Transpiration (tomato; 25 ppm PBI-429, 7 days after treatment): 75 % of control
Transpiration (tomato; 25 ppm PBI-429, 10 days after treatment): 80 % of control
Transpiration (tomato; 25 ppm PBI-429, 14 days after treatment): 103 % of control
Transpiration (tomato; 50 ppm PBI-429, 3 days after treatment): 36 % of control
Transpiration (tomato; 50 ppm PBI-429, 5 days after treatment): 32 % of control
Transpiration (tomato; 50 ppm PBI-429, 7 days after treatment): 42 % of control
Transpiration (tomato; 50 ppm PBI-429, 10 days after treatment): 69 % of control
Transpiration (tomato; 50 ppm PBI-429, 14 days after treatment): 99 % of control
Transpiration (tomato; 100 ppm PBI-429, 3 days after treatment): 34 % of control
Transpiration (tomato; 100 ppm PBI-429, 5 days after treatment): 29 % of control
Transpiration (tomato; 100 ppm PBI-429, 7 days after treatment): 38 % of control
Transpiration (tomato; 100 ppm PBI-429, 10 days after treatment): 55 % of control
Transpiration (tomato; 100 ppm PBI-429, 14 days after treatment): 98 % of control
Transpiration (tomato; 200 ppm PBI-429, 3 days after treatment): 26 % of control
Transpiration (tomato; 200 ppm PBI-429, 5 days after treatment): 24 % of control
Transpiration (tomato; 200 ppm PBI-429, 7 days after treatment): 28 % of control
Transpiration (tomato; 200 ppm PBI-429, 10 days after treatment): 34 % of control
Transpiration (tomato; 200 ppm PBI-429, 14 days after treatment): 71 % of control
Tomato leaf transpiration (in words) (tomato): inhibited tomato leaf transpiration

CCOC(=O)C1CC(=O)C(=C(O)C2CC2)C(=O)C1 (stereo not drawn) [trinexapac-ethyl, reference compound]
Soil moisture (creeping bentgrass [1]; 4 days after treatment): 11.2%
Turfgrass height (creeping bentgrass [1]; 4 days after treatment): 7.3 mm
Reducing growth or maintaining soil moisture (in words) (creeping bentgrass [1]; 4 days after treatment, trinexapac-ethyl 25 ppm, PBI-702 50 ppm, alone or combined): ineffective at reducing growth or maintaining soil moisture
Soil moisture (creeping bentgrass [1]; 7 days after treatment): 12.7%
Turfgrass height (creeping bentgrass [1]; 7 days after treatment): 6.5 mm
Turf quality (creeping bentgrass [1]; 7 days after treatment): 7.3
Reducing growth (in words) (creeping bentgrass [1]; 7 days after treatment, trinexapac-ethyl 25 ppm, PBI-702 50 ppm, alone or combined): effective at reducing growth
Soil moisture (creeping bentgrass [1]; 38 days after treatment): 12.4%
Turfgrass height (creeping bentgrass [1]; 38 days after treatment): 6.0 mm
Turf quality (creeping bentgrass [1]; 38 days after treatment): 7.6
Transpiration (tomato; 250 ppm trinexapac-ethyl, 3 days after treatment): 95 % of control
Transpiration (tomato; 250 ppm trinexapac-ethyl, 5 days after treatment): 95 % of control
Transpiration (tomato; 250 ppm trinexapac-ethyl, 7 days after treatment): 94 % of control
Transpiration (tomato; 250 ppm trinexapac-ethyl, 10 days after treatment): 94 % of control
Transpiration (tomato; 250 ppm trinexapac-ethyl, 14 days after treatment): 100 % of control
Transpiration (tomato; 500 ppm trinexapac-ethyl, 3 days after treatment): 94 % of control
Transpiration (tomato; 500 ppm trinexapac-ethyl, 5 days after treatment): 101 % of control
Transpiration (tomato; 500 ppm trinexapac-ethyl, 7 days after treatment): 94 % of control
Transpiration (tomato; 500 ppm trinexapac-ethyl, 10 days after treatment): 97 % of control
Transpiration (tomato; 500 ppm trinexapac-ethyl, 14 days after treatment): 97 % of control
Transpiration (tomato; 1000 ppm trinexapac-ethyl, 3 days after treatment): 100 % of control
Transpiration (tomato; 1000 ppm trinexapac-ethyl, 5 days after treatment): 95 % of control
Transpiration (tomato; 1000 ppm trinexapac-ethyl, 7 days after treatment): 94 % of control
Transpiration (tomato; 1000 ppm trinexapac-ethyl, 10 days after treatment): 101 % of control
Transpiration (tomato; 1000 ppm trinexapac-ethyl, 14 days after treatment): 100 % of control
Transpiration (tomato; 2000 ppm trinexapac-ethyl, 3 days after treatment): 94 % of control
Transpiration (tomato; 2000 ppm trinexapac-ethyl, 5 days after treatment): 96 % of control
Transpiration (tomato; 2000 ppm trinexapac-ethyl, 7 days after treatment): 93 % of control
Transpiration (tomato; 2000 ppm trinexapac-ethyl, 10 days after treatment): 91 % of control
Transpiration (tomato; 2000 ppm trinexapac-ethyl, 14 days after treatment): 96 % of control
Tomato leaf transpiration (in words) (tomato): did not significantly inhibited tomato leaf transpiration
Growth rate (creeping bentgrass [2]): 549 mg dry weight m^−2 day^−1
Turfgrass quality (creeping bentgrass [2]; visual 0-9 scale, 9 best): 8.0
